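Method: 48-hour compound exposure of cells in 96-well plates, five concentrations, linear interpolation of endpoints. GI50: concentration for 50% inhibition of growth.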 The source made the active and inactive calls. Rule as the data show it: active = GI50 up to about 1.1 µM and inactive = higher.
Legend:
Test in all cases: growth of human tumour cells (NCI), 48 h
OVCAR-5 = tested on: OVCAR-5
SR = tested on: SR
TK-10 = tested on: TK-10
MCF7 = tested on: MCF7
SF-539 = tested on: SF-539
HL-60 = tested on: HL-60
M14 = tested on: M14
MOLT-4 = tested on: MOLT-4
SN12C = tested on: SN12C
A549 = tested on: A549
UO-31 = tested on: UO-31
OVCAR-3 = tested on: OVCAR-3
NCI/ADR-RES = tested on: NCI/ADR-RES
DU-145 = tested on: DU-145
KM12 = tested on: KM12
COLO 205 = tested on: COLO 205

SMILES | GI50 (OVCAR-5) | GI50 (SR) | GI50 (TK-10) | GI50 (MCF7) | GI50 (SF-539) | GI50 (HL-60) | GI50 (M14) | GI50 (MOLT-4) | GI50 (SN12C) | GI50 (A549) | GI50 (UO-31) | GI50 (OVCAR-3) | GI50 (NCI/ADR-RES) | GI50 (DU-145) | GI50 (KM12) | GI50 (COLO 205)
C(/Cc1ccc2c(c1)OCO2)=N\N=C1NCCN1 | 57.3 µM (inactive) | 73.5 µM (inactive) | 61.7 µM (inactive) | > 100 µM (inactive) | 79.3 µM (inactive) | 89.1 µM (inactive) | > 100 µM (inactive) | 52.6 µM (inactive) | 84.7 µM (inactive) | 73.8 µM (inactive) | 42.1 µM (inactive) | > 100 µM (inactive) | > 100 µM (inactive) | > 100 µM (inactive) | > 100 µM (inactive) | > 100 µM (inactive)
CCCCCCc1cc2cc(-c3cn4ccccc4n3)c(=O)oc2cc1O | 21.8 µM (inactive) | 5.57 µM (inactive) | 15.5 µM (inactive) | 5.43 µM (inactive) | 2.76 µM (inactive) | 30.7 µM (inactive) | 5.52 µM (inactive) | 7.91 µM (inactive) | 5.35 µM (inactive) | 16.5 µM (inactive) | 8.39 µM (inactive) | 4.38 µM (inactive) | 5.26 µM (inactive) | 5.11 µM (inactive) | 16.1 µM (inactive) | > 100 µM (inactive)
[O-]c1c2cc(-[n+]3c(-c4ccccc4)cc(-c4ccccc4)cc3-c3ccccc3)cc1CO[C@@H](c1ccccc1)[C@H](c1ccccc1)OCc1cccc(n1)CO[C@@H](c1ccccc1)[C@H](c1ccccc1)OC2 | 0.514 µM (active) | 0.035 µM (active) | 0.594 µM (active) | 0.0388 µM (active) | 0.371 µM (active) | 0.0215 µM (active) | 0.161 µM (active) | 0.0526 µM (active) | 0.0378 µM (active) | 0.0536 µM (active) | 0.625 µM (active) | 0.0299 µM (active) | 1.97 µM (inactive) | 0.326 µM (active) | 0.0383 µM (active) | 0.0259 µM (active)
COc1cc(C(c2cccc3ccccc23)N2C(=O)CCC2C(=O)NCc2ccccc2)cc(OC)c1OC (configuration not stated) | > 100 µM (inactive) | > 100 µM (inactive) | – | > 100 µM (inactive) | > 100 µM (inactive) | 57.7 µM (inactive) | > 100 µM (inactive) | 78 µM (inactive) | > 100 µM (inactive) | > 100 µM (inactive) | > 100 µM (inactive) | > 100 µM (inactive) | > 100 µM (inactive) | > 100 µM (inactive) | > 100 µM (inactive) | > 100 µM (inactive)
Cc1cnc2[nH]c(-c3cccc(Cl)c3)cc(=O)c2c1 | – | 0.0345 µM (active) | 22.8 µM (inactive) | 0.381 µM (active) | 0.0194 µM (active) | < 0.0176 µM (active) | 0.0406 µM (active) | 0.0338 µM (active) | – | 0.0676 µM (active) | 1.7 µM (inactive) | 0.0216 µM (active) | 0.054 µM (active) | 0.154 µM (active) | 0.102 µM (active) | 0.0807 µM (active)
NS(=O)(=O)c1ccc(NC(=O)c2cc([N+](=O)[O-])cc([N+](=O)[O-])c2)cc1 | – | 63.1 µM (inactive) | > 100 µM (inactive) | 19.5 µM (inactive) | 30.7 µM (inactive) | 32.1 µM (inactive) | 47.8 µM (inactive) | 68.9 µM (inactive) | 21.7 µM (inactive) | 42.6 µM (inactive) | 65.6 µM (inactive) | 25.8 µM (inactive) | > 100 µM (inactive) | 59.7 µM (inactive) | 40.4 µM (inactive) | 19.7 µM (inactive)
c1ccc(C2(c3cc4ccccc4[nH]3)OCCO2)cc1 | 30.8 µM (inactive) | 22.4 µM (inactive) | > 100 µM (inactive) | 31 µM (inactive) | > 100 µM (inactive) | – | 33.3 µM (inactive) | 11.6 µM (inactive) | 41.2 µM (inactive) | 39.4 µM (inactive) | 42.6 µM (inactive) | 53.5 µM (inactive) | 67.6 µM (inactive) | 65.3 µM (inactive) | 37.8 µM (inactive) | 27.9 µM (inactive)
